{"source": "patent US12410157B2", "about": "“Compound useful as toll-like receptor 7 activation inhibitor” (TOYAMA PREFECTURAL UNIVERSITY, priority 2020, dated 2025)", "key": {"[1]": {"tested_on": "Cytochrome P450 (CYP), mouse liver microsomes", "test": "Metabolic stability (CYP) using mouse liver microsomes, HPLC", "type": "in vitro ADME", "details": "for Area (%) of peak: LC-UV (220 nm)", "protocol": "For CB-7, B2-24, and B2-5A, 10 mg/mL DMSO solution was used. Each chemical compound was diluted with acetonitrile to 0.1 mg/mL, which was used as the analytical standard. Mouse liver microsomal fractions were rapidly thawed in a warm bath at 37° C. and kept on ice. Reaction buffer containing CYP cofactor was prepared on ice and mixed with the microsomal fractions. The reaction solution was preincubated at 37° C. for 5 minutes, and then the test substance solution was added and mixed well by pipetting. The volume of the reaction solution was 200 μL and the final concentration of the test substance was 0.1 mg/mL. The reaction solution was incubated at 37° C. for 30 minutes or 2 hours, and the reaction was stopped by adding 3 times the volume of acetonitrile and vortexing. After the reaction was stopped, the samples were centrifuged, and each supernatant was separated and dried in an evaporator. 50 μL of 50% acetonitrile solution was added to each solidified sample, and each sample was re-dissolved by vortexing for 5 minutes. Each redissolved solution was centrifuged, and each supernatant was subjected to HPLC analysis using a HITACHI Lachrom ELITE (HITACHI) as a HPLC system and COSMOSIL 5C18-MS-II, 4.6 mmI.D.×150 mm (nacalai tesque Co.) as a column.\nMetabolic stability analysis of CB-7 and B2-24-4-5A·HCOOH was performed by the method of Example 5."}, "[2]": {"test": "Plasma concentration in normal mice after oral administration", "type": "in vivo, mice (C57BL/6N)", "details": "C57BL/6N mice, 1 mg orally", "protocol": "Plasma concentrations of CB-7 or B2-24-4-5A·HCOOH were measured in normal mice (C57BL/6N, 11 weeks old, female) after oral administration. 1 mg of CB-7 or B2-24-4-5A·HCOOH was administered orally to mice C57BL/6N. After 0.5, 1, 2, 4, or 8 hours, blood was collected from mice C57BL/6N to prepare plasma. The concentration of CB-7 or B2-24-4-5A·HCOOH in the plasma was measured by LC/MS/MS."}, "[3]": {"test": "Plasma concentration in mouse model of systemic lupus erythematosus after oral administration", "type": "in vivo", "details": "NZBWF1 mice, 5 mg/kg orally", "protocol": "Plasma concentrations of B2-24-4-5A·HCOOH were determined after oral administration of B2-24-4-5A·HCOOH in a mouse model of systemic lupus erythematosus (NZBWF1, 20 weeks old, female). 5 mg/kg of B2-24-4-5A·HCOOH was administered orally to NZBWF1 mice. After 0.5, 1, 2, 4, 8, 16, or 24 hours, blood was collected from NZBWF1 mice to prepare plasma. The concentration of B2-24-4-5A·HCOOH in the plasma was determined by LC/MS/MS."}, "[4]": {"tested_on": "systemic lupus erythematosus model mice (NZBWF1)", "test": "Therapeutic effect in mouse model of spontaneous systemic lupus erythematosus", "type": "in vivo", "protocol": "Systemic lupus erythematosus model mice (NZBWF1, 20 weeks old, female, n=55) were divided into saline-administered group (control, n=25), B2-24-4-5A·HCOOH-administered group (n=10), B2-24-4·HCOOH-administered group (n=5) and HCQ-administered group (n=15). The saline-administered group received saline (100 l) orally once a day, every day; the B2-24-4-5A·HCOOH-administered group received 10 mg/kg of B2-24-4-5A·HCOOH (100 l) orally once a day, every day; the B2-24-4·HCOOH-administered group received 10 mg/kg of B2-24-4·HCOOH (100 l) orally once a day, every day; the HCQ-administered group received 10 mg/kg of HCQ (100 l) orally once a day, every day. Fifteen weeks after the start of treatment, urine was collected from surviving mice in the saline-administered group (control, n=17), B2-24-4-5A·HCOOH-administered group (n=10), B2-24-4·HCOOH-administered group (n=5), and HCQ-administered group (n=12), and the mice were euthanized. After euthanasia, blood was drawn from the abdominal aorta of the mice, and the kidneys and spleen were removed.\nMice that died of natural causes during the 15-week period from the start of treatment were counted as deaths, and survival analysis was performed using the Kaplan Meier method. Blood collected from the abdominal aorta of each mouse, excluding the deceased cases, was centrifuged and serum was prepared. Determination of urea nitrogen and creatinine levels in serum was entrusted to Oriental Yeast Co. Albumin levels in urine were determined by ELISA (used kit: Levis Urinary Albumin-Mouse (S-type) (trade name) (Fujifilm Wako Shibayagi Corporation)). The removed kidneys were fixed with 4% (w/v) paraformaldehyde, and immunohistochemical staining was entrusted to Morpho Technology, Inc. In PAS-stained kidney tissue sections, histological findings of 100 glomeruli were evaluated. For increased cells and substrate in the mesangial area, endothelial cell swelling and cellular infiltration of the capillary lumen (intratubular proliferation), and glomeruli with inflammatory crescents (extratubular proliferation), each of the 100 glomeruli was assigned a grade from grade 0 to grade 2 according to severity and scored on a 6-point scale.\nFIG. 10F is a photograph showing C3 deposition in the glomeruli of a mouse (#1) in the saline-administered group, a mouse (#10) in the B2-24-4-5A·HCOOH-administered group, a mouse (#4) in the B2-24-4·HCOOH-administered group and a mouse (#14) in the HCQ-administered group. […] In the renal tissue sections of a mouse (#1) in the saline-administered group, findings of active glomerulonephritis such as diffuse mesangial and intratubular proliferation were observed. […] The plots in FIGS. 10B, 10C, and 10D show the data for each individual, each bold line is the mean of the group data, and each error bar standard error. Scale bars in FIGS. 10E and 10F represent 100 μm. […]"}, "[5]": {"details": "female, mouse, plasma, po, LC/MS/MS"}}, "note": "Several values for one entry are separate records, joined by “and”; a condition that tells them apart may be missing. Equal entries are not always repeated.", "data": [{"smiles": "C=C(C)[C@@H]1CC[C@]2(COC(=O)C2)C[C@H]1c1ccc(CN2CCNCC2)cc1", "note": "[B2-24-4-5A·HCOOH]", "values": [{"measurement": "Number of peaks detected by HPLC", "setting": "[1]; Example 9", "value": 6}, {"measurement": "Area (%) of peak", "setting": "[1]; Example 9, 0 h", "value": 100, "unit": "%"}, {"measurement": "Area (%) of peak", "setting": "[1]; Example 9, incubation 0.5 h", "value": 95.4, "unit": "%"}, {"measurement": "Area (%) of peak", "setting": "[1]; Example 9, incubation 2.0 h", "value": 88.4, "unit": "%"}, {"measurement": "Drug metabolism mainly by CYPs compared to CB-7", "setting": "[1]; words", "value": "significantly improved drug metabolism"}, {"measurement": "Persistence in plasma compared to CB-7", "setting": "[2]", "value": "remains in plasma for a longer time than CB-7"}, {"measurement": "concentration at 8 h", "setting": "[2]; [5]", "value": "~500", "unit": "ng/mL"}, {"measurement": "Plasma level after 8 hours", "setting": "[3]", "value": "near-bottom level"}, {"measurement": "concentration at 0.5 h", "setting": "[3]; [5]", "value": 88.1, "unit": "ng/mL"}, {"measurement": "Surviving mice fifteen weeks after the start of treatment", "setting": "[4]; 10 mg/kg orally once a day, groups started with n=10, n=5, n=15 (HCQ)", "value": 10}, {"measurement": "score", "setting": "[4]; per mouse, histological score on a 6-point scale", "value": "0.23 and 0.15 and 0.42 and 0.09 (2×) and 0.24 and 0.03 and 0.04 and 0.14 and 0.52"}, {"measurement": "Inside 0", "setting": "[4]; per mouse, of 100 glomeruli, endothelial cell swelling and cellular infiltration of capillary lumen, Grade 0", "value": "99 (2×) and 100 (3×) and 78 and 96 and 94 and 97 and 74"}, {"measurement": "Inside 1", "setting": "[4]; per mouse, of 100 glomeruli, endothelial cell swelling and cellular infiltration of capillary lumen, Grade 1", "value": "1 (2×) and 0 (3×) and 18 and 4 and 6 and 3 and 20"}, {"measurement": "Inside 2", "setting": "[4]; per mouse, of 100 glomeruli, endothelial cell swelling and cellular infiltration of capillary lumen, Grade 2", "value": "0 (8×) and 4 and 6"}, {"measurement": "Outside 0", "setting": "[4]; per mouse, of 100 glomeruli, glomerulus with semilunar, Grade 0", "value": "99 and 100 (9×)"}, {"measurement": "Outside 1", "setting": "[4]; per mouse, of 100 glomeruli, glomerulus with semilunar, Grade 1", "value": "1 and 0 (9×)"}, {"measurement": "Outside 2", "setting": "[4]; per mouse, of 100 glomeruli, glomerulus with semilunar, Grade 2", "value": 0}, {"measurement": "Mes0", "setting": "[4]; per mouse, of 100 glomeruli, increase in cells and substrates in the mesangium region, Grade 0: None, 10 mg/kg orally, 15 weeks, 10 mg/kg", "value": "80 (3×) and 86 (2×) and 92 (2×) and 97 and 96 and 94"}, {"measurement": "Mes1", "setting": "[4]; per mouse, of 100 glomeruli, mesangium region, Grade 1: Moderate or lower", "value": "19 and 13 and 12 and 8 (2×) and 20 (2×) and 3 and 4 and 6"}, {"measurement": "Mes2", "setting": "[4]; per mouse, of 100 glomeruli, mesangium region, Grade 2: Moderate or higher", "value": "1 (2×) and 2 and 0 (7×)"}]}]}
